Results published in US7163787B2, “Methods for the identification of antiviral compounds” (Crucell Holland B.V., priority 2001, dated 2007).

Columns and labels:
HSV-1 [1] = assay: TCID50 titration of HSV-1 on PER.C6 with acyclovir, CPE score; type: cell-based, Herpes Simplex Virus type 1
Procedure: (§1) FIG. 16. Virustatic activity of acyclovir for Herpes Simplex Virus type 1 and type 2 (HSV-1 and HSV-2) using PER.C6 cells as a substrate for virus replication and TCID50 calculations based on CPE score on day 6 post infection.
(§2) To test the feasibility of PER.C6 for antiviral drug screening, the acyclovir/HSV system was used. A TCID50 titration of both a HSV-1 as well as a HSV-2 stock virus produced on PER.C6 (titer 6000 TCID50/ml) was performed in either the absence or in the presence of different concentrations of acyclovir. PER.C6 cells were seeded in a 96-wells tissue culture plate at a concentration of 1×10^5 cells/well, in normal culture medium, DMEM (Gibco) supplemented with heat inactivated FBS (origin US, Gibco) and 1 ml 4.9 M MgCl2 (Sigma). The day after seeding, cells were pre-incubated with the appropriate acyclovir (20 mg/ml, Genthon) concentration being, 200, 20, 2, 0,2 and 0 μg/ml, diluted in normal culture medium, for 2 hours at 37° C. and 10% CO2. A total of 20 wells were used per concentration. […]
(§3) At day 6 post infection, CPE was scored in each of the wells and TCID50 calculated according to the Karber method (1931), which is well known to persons skilled in the art. In addition, viable cells were scored with the MTS assay. […] 10% CO2, followed by reading the OD490 in an ELISA reader.

HSV-2 [2] = assay: TCID50 titration of HSV-2 on PER.C6 with acyclovir, CPE score; type: cell-based, Herpes Simplex Virus type 2
Procedure: as §1, §2, §3

HSV-1 [3] = assay: Viable cell scoring by MTS assay of HSV-1 infected PER.C6 with acyclovir; type: cell-based, Herpes Simplex Virus type 1; settings: HSV-1 on PER.C6; day 6 post infection
Procedure: (§4) FIG. 17. Virustatic effect of acyclovir against (A) HSV-1 and (B) HSV-2 using infection of PER.C6 with different 10 fold serial dilutions of virus and viable cell scoring by MTS assay on day 6 post infection.
as §2, §3

HSV-2 [4] = assay: Viable cell scoring by MTS assay of HSV-2 infected PER.C6 with acyclovir; type: cell-based, Herpes Simplex Virus type 2; settings: HSV-2 on PER.C6; day 6 post infection
Procedure: as §4, §2, §3

HSV = settings: A549 cells; cited from earlier work
HRV14 or HRV16 = settings: cited from earlier work

SMILES | TCID50 reduction as compared to the control (HSV-1 [1]; HSV-1 on PER.C6, 20 μg/ml of acyclovir, CPE score day 6 post infection) [fold] | virustatic effect (HSV-1 [1]; HSV-1 propagated on PER.C6 cells) | amount of acyclovir for 1000 fold TCID50 reduction, relative to HSV-1 (HSV-2 [2]; HSV-2 on PER.C6, CPE score day 6 post infection) | virustatic effect (HSV-2 [2]; HSV-2 propagated on PER.C6 cells) | prevention of cell death caused by virus (viable cells, MTS) (HSV-1 [3]) | viable cells scored with MTS assay compared with TCID50 result (HSV-2 [4]) | HSV replication (HSV) | cytopathic effect in infected cells (HRV14 or HRV16; cells infected with HRV14 or HRV16) | rhinovirus replication in vitro (HRV14 or HRV16; in vitro)
Nc1nc2c(ncn2COCCO)c(=O)[nH]1 [acyclovir, 2-amino-1,9-dihydro-9-[(2-hydroethoxy)methyl]-6H-purin-6-one] | ~1000 | clear virustatic effect | required a higher amount of acyclovir | clear virustatic effect | more effective at a lower dosage in preventing cell death caused by HSV-1 than by HSV-2 | comparable results were obtained | inhibited HSV replication | – | –
c1ccc2c(c1)oc1ccccc12 [Dibenzofuran] | – | – | – | – | – | – | – | hinder the cytopathic effect | block rhinovirus replication in vitro
